Results taken from patent publication US6653321B1, “Naphthylsulfonic acids and related compounds as glucose uptake agonists” (Telik, Inc., priority 1999, dated 2003).

Target: T1, β-kinase domain of the human insulin receptor (CKD) (Homo sapiens, UniProt P06213)
T1 construct: The complete β-kinase domain of the human insulin receptor (CKD); made in house
Test: 32P-Cytoplasmic Kinase Domain (CKD) autophosphorylation assay
Format: biochemical
Conditions: 32P incorporated into CKD band, percentage of the vehicle (DMSO) level; 10 minutes at room temperature; compound concentration not given
Experimental: The complete β-kinase domain of the human insulin receptor (CKD) was expressed in, and purified from, baculovirus. CKD (4.0 μg/mL), in a solution of 50 mM Tris.HCl, 2 mM MnCl2, 10 mM MgCl2 (50 μl final volume), was combined with […] ATP, and 5 μCi ^32P-ATP (3000 Ci/mmol.). A test compound, or the vehicle (DMSO), was added to a final DMSO concentration of 1%. The mixture was incubated for 10 minutes at room temperature. The reaction was terminated by the addition of 10 μl of 200 mM EDTA. A 30 μl volume was removed, mixed with 5 μl of 6×Laemmeli sodium dodecyl sulfate (SDS) treatment buffer, and heated to 94° C. for 5 minutes. A 20 μl aliquot was then run on an SDS-PAGE gel. The radioactivity incorporated into the CKD band is quantified by phosphorimaging of the gel, or scintillation counting of the excised bands.
The potency of a compound for increasing phosphorylation is expressed as a percentage of the vehicle level.

T1 sequence (P06213 980-1382 limits assumed): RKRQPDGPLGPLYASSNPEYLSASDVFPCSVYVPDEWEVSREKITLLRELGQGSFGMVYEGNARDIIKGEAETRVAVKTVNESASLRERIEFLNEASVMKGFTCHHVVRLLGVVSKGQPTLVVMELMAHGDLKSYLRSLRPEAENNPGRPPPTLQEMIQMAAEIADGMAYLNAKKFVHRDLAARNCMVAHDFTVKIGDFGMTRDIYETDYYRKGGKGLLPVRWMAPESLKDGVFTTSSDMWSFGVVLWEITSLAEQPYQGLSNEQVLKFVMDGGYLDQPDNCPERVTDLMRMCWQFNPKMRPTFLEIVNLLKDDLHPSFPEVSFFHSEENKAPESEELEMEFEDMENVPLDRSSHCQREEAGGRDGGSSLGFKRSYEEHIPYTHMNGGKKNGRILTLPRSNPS

Structure (SMILES)	Activity (% Control)
Cc1cccc(NC(=O)Nc2cc(C(=O)Nc3cccc4cc(S(=O)(=O)O)ccc34)cc(C(=O)Nc3cccc4cc(S(=O)(=O)O)ccc34)c2)c1 [Compound 61, 5-[(3-{[(3-methylphenyl)amino]carbonylamino}-5-[N-(6-sulfonaphthyl)carbamoyl]phenyl)carbonylamino]naphthalene-2-sulfonic acid]	114.6 % Control
COc1ccccc1NC(=O)Nc1cc(C(=O)Nc2cccc3cc(S(=O)(=O)O)ccc23)cc(C(=O)Nc2cccc3cc(S(=O)(=O)O)ccc23)c1 [Compound 63, 5-[(3-{[(2-methoxyphenyl)amino]carbonylamino}-5-[N-(6-sulfonaphthyl)carbamoyl]phenyl)carbonylamino]naphthalene-2-sulfonic acid]	94.4 % Control
O=C(Nc1cc(C(=O)Nc2cccc3cc(S(=O)(=O)O)ccc23)cc(C(=O)Nc2cccc3cc(S(=O)(=O)O)ccc23)c1)c1ccc([N+](=O)[O-])cc1 [Compound 14, 5-({3-[(4-nitrophenyl)carbonylamino]-5-[N-(6-sulfonaphthyl)carbamoyl]phenyl}carbonylamino)naphthalene-2-sulfonic acid]	81.7 % Control
O=C(Nc1cccc2cc(S(=O)(=O)O)ccc12)c1cc(NC(=O)C2CCCCC2)cc(C(=O)Nc2cccc3cc(S(=O)(=O)O)ccc23)c1 [Compound 33, 5-({3-(cyclohexylcarbonylamino)-5-[N-(6-sulfonaphthyl)carbamoyl]phenyl}carbonylamino)naphthalene-2-sulfonic acid]	122.5 % Control
O=C(Nc1ccc(Cl)cc1)Nc1cc(C(=O)Nc2cccc3cc(S(=O)(=O)O)ccc23)cc(C(=O)Nc2cccc3cc(S(=O)(=O)O)ccc23)c1 [Compound 58, 5-[(3-{[(4-chlorophenyl)amino]carbonylamino}-5-[N-(6-sulfonaphthyl)carbamoyl]phenyl)carbonylamino]naphthalene-2-sulfonic acid]	106.4 % Control
COc1cccc(NC(=O)Nc2cc(C(=O)Nc3cccc4cc(S(=O)(=O)O)ccc34)cc(C(=O)Nc3cccc4cc(S(=O)(=O)O)ccc34)c2)c1 [Compound 64, 5-[(3-{[(3-methoxyphenyl)amino]carbonylamino}-5-[N-(6-sulfonaphthyl)carbamoyl]phenyl)carbonylamino]naphthalene-2-sulfonic acid]	58.3 % Control
O=C(COc1ccccc1)Nc1cc(C(=O)Nc2cccc3cc(S(=O)(=O)O)ccc23)cc(C(=O)Nc2cccc3cc(S(=O)(=O)O)ccc23)c1 [Compound 38, 5-({3-(2-phenoxyacetylamino)-5-[N-(6-sulfonaphthyl)carbamoyl]phenyl}carbonylamino)naphthalene-2-sulfonic acid]	84.7 % Control
O=C(Nc1ccccc1)Nc1cc(C(=O)Nc2cccc3cc(S(=O)(=O)O)ccc23)cc(C(=O)Nc2cccc3cc(S(=O)(=O)O)ccc23)c1 [Compound 66, 5-({3-[(phenylamino)carbonylamino]-5-[N-(6-sulfonaphthyl)carbamoyl]phenyl}carbonylamino)naphthalene-2-sulfonic acid]	115.5 % Control
Cc1cc(C)c(S(=O)(=O)Nc2cc(C(=O)Nc3cccc4cc(S(=O)(=O)O)ccc34)cc(C(=O)Nc3cccc4cc(S(=O)(=O)O)ccc34)c2)c(C)c1 [Compound 55, 5-[(3-{[(2,4,6-trimethylphenyl)sulfonyl]amino}-5-[N-(6-sulfonaphthyl)carbamoyl]phenyl)carbonylamino]naphthalene-2-sulfonic acid]	121.6 % Control
COc1ccc(S(=O)(=O)Nc2cc(C(=O)Nc3cccc4cc(S(=O)(=O)O)ccc34)cc(C(=O)Nc3cccc4cc(S(=O)(=O)O)ccc34)c2)cc1 [Compound 52, 5-[(3-{[(4-methoxyphenyl)sulfonyl]amino}-5-[N-(6-sulfonaphthyl)carbamoyl]phenyl)carbonylamino]naphthalene-2-sulfonic acid]	111.1 % Control
